PMC6004248 (Clinical cancer research : an official journal of the …, 2018)
“And” between values parts separate entries of the source, which are not always exact repeats. Equal entries are not always repeated. Where two headings read alike, the source gives them in different places.

Columns and labels:
ALK-positive NSCLC [1] = conditions: cited from earlier work
[2] = cited from earlier work; for patients who experienced diarrhea: in some studies
ALK variants = assay: Biochemical kinase assay; conditions: read-out: in vitro IC50s, all evaluated ALK variants; wild-type ALK and 17 ALK variants
ALK F1174 mutant = ALK F1174 mutant (Homo sapiens, UniProt Q9UM73); assay: Biochemical kinase assay
EphA1 = target: T1, EphA1 (Homo sapiens, UniProt P21709); assay: Biochemical kinase assay
T1 sequence (P21709 26-976): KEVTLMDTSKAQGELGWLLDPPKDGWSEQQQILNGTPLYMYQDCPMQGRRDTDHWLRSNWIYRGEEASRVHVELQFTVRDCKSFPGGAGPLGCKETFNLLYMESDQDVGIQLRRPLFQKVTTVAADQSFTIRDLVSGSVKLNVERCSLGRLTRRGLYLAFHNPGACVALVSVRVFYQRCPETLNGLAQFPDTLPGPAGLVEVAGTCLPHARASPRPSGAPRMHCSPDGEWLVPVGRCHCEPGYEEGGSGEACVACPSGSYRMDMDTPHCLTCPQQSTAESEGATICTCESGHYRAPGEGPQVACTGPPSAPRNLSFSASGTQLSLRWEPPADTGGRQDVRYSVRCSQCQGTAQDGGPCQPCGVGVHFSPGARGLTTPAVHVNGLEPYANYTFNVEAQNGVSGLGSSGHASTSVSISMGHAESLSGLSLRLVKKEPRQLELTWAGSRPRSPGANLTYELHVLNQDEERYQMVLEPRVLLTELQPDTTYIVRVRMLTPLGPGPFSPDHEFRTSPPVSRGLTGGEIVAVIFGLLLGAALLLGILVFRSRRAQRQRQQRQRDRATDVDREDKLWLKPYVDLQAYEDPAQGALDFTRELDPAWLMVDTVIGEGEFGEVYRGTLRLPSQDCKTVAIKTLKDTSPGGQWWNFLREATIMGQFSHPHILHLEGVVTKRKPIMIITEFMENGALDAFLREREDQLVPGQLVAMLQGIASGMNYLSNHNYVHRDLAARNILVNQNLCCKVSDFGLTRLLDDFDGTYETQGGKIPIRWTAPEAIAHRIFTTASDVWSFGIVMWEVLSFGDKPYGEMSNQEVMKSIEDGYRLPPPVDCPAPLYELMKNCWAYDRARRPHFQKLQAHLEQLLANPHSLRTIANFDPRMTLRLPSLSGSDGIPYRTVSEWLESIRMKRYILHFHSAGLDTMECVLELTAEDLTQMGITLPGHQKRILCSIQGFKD

[3] = test system: ALK fusions engineered to have point mutation L1196M; conditions: mutation associated with crizotinib resistance; cited from earlier work
TRKC = TRKC (Homo sapiens, UniProt Q16288); assay: Biochemical kinase assay
ALK C1156Y mutant = ALK C1156Y mutant (Homo sapiens, UniProt Q9UM73, C1156Y); assay: Biochemical kinase assay
Phase I/II trial, safety = assay type: in vivo
ALK L1196M mutant = ALK L1196M mutant (Homo sapiens, UniProt Q9UM73, L1196M); assay: Biochemical kinase assay
EphB1 = target: T2, EphB1 (Homo sapiens, UniProt P54762); assay: Biochemical kinase assay
T2 sequence (P54762 18-984): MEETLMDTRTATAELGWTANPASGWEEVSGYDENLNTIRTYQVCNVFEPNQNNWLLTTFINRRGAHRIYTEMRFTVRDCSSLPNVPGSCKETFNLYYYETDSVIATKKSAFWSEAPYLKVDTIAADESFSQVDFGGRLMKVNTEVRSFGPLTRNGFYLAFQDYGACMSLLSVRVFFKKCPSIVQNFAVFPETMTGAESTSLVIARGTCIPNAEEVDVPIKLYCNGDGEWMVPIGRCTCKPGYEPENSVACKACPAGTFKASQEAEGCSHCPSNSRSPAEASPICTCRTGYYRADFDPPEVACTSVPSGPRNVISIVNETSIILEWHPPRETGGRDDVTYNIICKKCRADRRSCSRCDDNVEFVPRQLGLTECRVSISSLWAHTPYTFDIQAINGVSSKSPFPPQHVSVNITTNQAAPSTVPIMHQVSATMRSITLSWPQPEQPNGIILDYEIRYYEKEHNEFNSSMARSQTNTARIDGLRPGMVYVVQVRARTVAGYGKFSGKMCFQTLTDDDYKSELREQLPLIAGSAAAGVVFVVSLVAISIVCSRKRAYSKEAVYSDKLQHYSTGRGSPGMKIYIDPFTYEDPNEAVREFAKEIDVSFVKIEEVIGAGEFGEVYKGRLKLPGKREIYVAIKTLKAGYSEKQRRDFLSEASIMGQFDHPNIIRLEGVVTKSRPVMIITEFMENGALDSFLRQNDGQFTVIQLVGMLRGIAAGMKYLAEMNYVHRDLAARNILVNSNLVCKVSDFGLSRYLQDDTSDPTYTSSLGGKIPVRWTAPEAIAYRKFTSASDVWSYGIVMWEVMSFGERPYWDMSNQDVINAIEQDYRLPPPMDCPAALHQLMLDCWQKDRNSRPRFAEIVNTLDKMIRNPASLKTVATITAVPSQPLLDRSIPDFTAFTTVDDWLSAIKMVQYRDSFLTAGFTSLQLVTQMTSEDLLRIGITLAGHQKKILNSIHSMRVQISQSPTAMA

GOPC-ROS1 = GOPC-ROS1 (Homo sapiens, UniProt P08922); assay: Biochemical kinase assay
[4] = test system: ALK fusions engineered to have point mutation C1156Y; conditions: mutation associated with crizotinib resistance; cited from earlier work
ALK T1151 mutant = ALK T1151 mutant (Homo sapiens, UniProt Q9UM73); assay: Biochemical kinase assay
TPM3-TRKA = TPM3-TRKA (Homo sapiens, UniProt P04629); assay: Biochemical kinase assay
c-MET = c-MET (Homo sapiens, UniProt P08581); assay: Biochemical kinase assay
ALK S1206R mutant = ALK S1206R mutant (Homo sapiens, UniProt Q9UM73, S1206R); assay: Biochemical kinase assay
EphA2 = EphA2 (Homo sapiens, UniProt P29317); assay: Biochemical kinase assay
wild-type ALK = wild-type ALK (Homo sapiens, UniProt Q9UM73); assay: Biochemical kinase assay
[5] = Phase I/II trial, plasma pharmacokinetics; assay type: in vivo, human
[6] = test system: H3122 lung cancer xenografts (EML4-ALK E13;A20 fusion); conditions: cited from earlier work
ALK-positive NSCLC [7] = assay: Phase I/II trial, antitumor activity; assay type: in vivo, human
[8] = test system: ALK-positive lung cancer cell lines; conditions: cited from earlier work
ALK-positive NSCLC [9] = conditions: crizotinib-refractory population; cited from earlier work
[10] = ALK-positive efficacy evaluable patients, ≥200 mg, n=60
[11] = patients with baseline CNS target lesions, n=14, ≥200 mg
[12] = prior crizotinib and at least one second-generation ALK TKI, n=16

GOPC-ROS1, sequence (P08922 1881-2347, other chains not shown): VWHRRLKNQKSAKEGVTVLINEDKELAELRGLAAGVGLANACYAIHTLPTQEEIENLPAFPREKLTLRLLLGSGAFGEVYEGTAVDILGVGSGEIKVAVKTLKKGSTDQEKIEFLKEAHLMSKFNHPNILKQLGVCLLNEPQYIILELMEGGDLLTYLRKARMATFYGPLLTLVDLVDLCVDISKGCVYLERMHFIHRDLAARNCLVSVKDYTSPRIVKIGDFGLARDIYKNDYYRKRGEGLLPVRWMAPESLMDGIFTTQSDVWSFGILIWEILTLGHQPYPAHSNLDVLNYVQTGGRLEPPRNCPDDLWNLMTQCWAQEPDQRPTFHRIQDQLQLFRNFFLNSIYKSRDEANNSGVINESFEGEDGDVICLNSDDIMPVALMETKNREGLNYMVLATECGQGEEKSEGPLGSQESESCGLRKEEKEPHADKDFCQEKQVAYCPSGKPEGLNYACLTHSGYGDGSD
wild-type ALK, sequence (Q9UM73 19-1620): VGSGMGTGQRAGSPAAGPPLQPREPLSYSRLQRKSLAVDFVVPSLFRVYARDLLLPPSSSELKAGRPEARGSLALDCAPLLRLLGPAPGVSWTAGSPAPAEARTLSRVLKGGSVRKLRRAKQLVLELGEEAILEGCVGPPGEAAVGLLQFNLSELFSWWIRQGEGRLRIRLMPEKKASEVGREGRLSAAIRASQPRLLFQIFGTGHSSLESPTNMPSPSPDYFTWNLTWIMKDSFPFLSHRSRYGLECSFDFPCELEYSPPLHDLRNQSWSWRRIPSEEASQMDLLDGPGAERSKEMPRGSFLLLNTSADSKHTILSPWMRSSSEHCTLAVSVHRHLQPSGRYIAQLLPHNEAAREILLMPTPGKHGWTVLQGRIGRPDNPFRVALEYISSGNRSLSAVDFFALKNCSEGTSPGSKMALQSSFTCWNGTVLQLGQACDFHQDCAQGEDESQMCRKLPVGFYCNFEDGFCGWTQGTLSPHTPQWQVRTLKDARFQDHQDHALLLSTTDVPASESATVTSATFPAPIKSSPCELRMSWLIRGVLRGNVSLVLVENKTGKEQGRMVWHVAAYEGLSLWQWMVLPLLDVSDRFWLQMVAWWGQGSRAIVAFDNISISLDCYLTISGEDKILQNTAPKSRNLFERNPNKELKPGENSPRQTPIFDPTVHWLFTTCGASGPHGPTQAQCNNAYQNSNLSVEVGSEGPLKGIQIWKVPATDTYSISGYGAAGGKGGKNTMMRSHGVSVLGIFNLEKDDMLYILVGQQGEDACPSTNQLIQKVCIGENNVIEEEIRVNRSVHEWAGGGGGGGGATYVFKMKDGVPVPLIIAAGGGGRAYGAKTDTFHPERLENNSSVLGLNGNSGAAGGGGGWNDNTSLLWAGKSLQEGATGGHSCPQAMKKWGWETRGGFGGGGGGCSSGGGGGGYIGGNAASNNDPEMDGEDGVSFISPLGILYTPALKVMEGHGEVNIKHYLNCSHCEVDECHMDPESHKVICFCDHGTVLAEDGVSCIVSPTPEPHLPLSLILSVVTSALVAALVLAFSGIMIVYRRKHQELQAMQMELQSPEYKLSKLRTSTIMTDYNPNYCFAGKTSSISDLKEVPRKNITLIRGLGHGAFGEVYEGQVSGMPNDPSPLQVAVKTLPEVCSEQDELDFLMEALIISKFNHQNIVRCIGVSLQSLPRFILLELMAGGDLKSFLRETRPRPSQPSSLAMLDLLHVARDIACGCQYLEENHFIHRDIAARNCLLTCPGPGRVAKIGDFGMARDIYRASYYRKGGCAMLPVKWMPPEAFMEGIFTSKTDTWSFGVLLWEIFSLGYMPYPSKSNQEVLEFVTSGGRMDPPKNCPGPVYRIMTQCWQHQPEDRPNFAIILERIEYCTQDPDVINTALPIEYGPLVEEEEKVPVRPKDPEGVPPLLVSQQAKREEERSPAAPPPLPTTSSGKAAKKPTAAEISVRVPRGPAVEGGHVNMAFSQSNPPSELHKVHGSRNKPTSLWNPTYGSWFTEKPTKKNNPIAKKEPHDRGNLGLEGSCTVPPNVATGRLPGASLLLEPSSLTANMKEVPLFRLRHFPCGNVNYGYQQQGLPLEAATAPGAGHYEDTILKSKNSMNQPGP
ALK L1196M mutant, sequence (Q9UM73 19-1620 L1196M): as the sequence (Q9UM73 19-1620) above, with L1178M counted along it
ALK C1156Y mutant, sequence (Q9UM73 19-1620 C1156Y): as the sequence (Q9UM73 19-1620) above, with C1138Y counted along it
TRKC, sequence (Q16288 32-839): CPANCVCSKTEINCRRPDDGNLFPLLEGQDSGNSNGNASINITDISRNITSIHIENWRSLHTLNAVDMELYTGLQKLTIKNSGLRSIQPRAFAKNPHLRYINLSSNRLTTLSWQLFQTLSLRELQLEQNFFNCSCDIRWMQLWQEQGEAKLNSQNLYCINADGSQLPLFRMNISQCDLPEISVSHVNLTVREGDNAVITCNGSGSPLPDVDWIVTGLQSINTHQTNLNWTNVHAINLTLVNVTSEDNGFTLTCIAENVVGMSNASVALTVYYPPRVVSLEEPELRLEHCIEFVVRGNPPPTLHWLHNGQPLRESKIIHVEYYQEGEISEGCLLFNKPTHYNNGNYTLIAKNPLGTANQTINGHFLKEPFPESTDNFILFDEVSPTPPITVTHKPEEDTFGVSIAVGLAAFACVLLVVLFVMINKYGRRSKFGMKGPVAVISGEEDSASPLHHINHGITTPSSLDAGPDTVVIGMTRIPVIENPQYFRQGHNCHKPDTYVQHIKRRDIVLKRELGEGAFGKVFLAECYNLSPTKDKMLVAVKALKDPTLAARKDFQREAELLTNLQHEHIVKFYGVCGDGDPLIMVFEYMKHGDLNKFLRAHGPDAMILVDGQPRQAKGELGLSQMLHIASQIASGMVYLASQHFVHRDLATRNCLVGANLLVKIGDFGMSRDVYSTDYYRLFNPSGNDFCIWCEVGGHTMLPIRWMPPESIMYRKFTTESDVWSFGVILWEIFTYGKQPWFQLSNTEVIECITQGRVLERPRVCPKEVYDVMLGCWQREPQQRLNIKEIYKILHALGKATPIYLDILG
TPM3-TRKA, sequence (P04629 399-796): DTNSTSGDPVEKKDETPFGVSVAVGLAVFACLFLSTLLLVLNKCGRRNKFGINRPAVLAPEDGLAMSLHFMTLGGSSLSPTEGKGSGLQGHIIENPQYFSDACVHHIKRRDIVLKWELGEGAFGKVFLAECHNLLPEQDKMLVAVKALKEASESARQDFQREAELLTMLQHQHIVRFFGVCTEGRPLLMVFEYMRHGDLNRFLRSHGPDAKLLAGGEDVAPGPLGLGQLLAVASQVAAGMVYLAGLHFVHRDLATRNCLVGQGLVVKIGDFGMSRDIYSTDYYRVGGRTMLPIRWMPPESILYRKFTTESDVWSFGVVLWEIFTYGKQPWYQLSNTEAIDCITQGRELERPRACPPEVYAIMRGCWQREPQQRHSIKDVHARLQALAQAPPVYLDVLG
TPM3-TRKA, sequence (P06753 2-258 partner): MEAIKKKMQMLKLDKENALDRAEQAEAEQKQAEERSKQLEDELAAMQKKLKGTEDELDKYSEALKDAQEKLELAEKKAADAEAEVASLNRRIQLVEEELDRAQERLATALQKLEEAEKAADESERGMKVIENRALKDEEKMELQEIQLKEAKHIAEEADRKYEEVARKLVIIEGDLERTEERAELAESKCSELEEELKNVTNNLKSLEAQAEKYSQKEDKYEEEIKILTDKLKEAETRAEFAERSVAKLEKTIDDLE
c-MET, sequence (P08581 25-1390): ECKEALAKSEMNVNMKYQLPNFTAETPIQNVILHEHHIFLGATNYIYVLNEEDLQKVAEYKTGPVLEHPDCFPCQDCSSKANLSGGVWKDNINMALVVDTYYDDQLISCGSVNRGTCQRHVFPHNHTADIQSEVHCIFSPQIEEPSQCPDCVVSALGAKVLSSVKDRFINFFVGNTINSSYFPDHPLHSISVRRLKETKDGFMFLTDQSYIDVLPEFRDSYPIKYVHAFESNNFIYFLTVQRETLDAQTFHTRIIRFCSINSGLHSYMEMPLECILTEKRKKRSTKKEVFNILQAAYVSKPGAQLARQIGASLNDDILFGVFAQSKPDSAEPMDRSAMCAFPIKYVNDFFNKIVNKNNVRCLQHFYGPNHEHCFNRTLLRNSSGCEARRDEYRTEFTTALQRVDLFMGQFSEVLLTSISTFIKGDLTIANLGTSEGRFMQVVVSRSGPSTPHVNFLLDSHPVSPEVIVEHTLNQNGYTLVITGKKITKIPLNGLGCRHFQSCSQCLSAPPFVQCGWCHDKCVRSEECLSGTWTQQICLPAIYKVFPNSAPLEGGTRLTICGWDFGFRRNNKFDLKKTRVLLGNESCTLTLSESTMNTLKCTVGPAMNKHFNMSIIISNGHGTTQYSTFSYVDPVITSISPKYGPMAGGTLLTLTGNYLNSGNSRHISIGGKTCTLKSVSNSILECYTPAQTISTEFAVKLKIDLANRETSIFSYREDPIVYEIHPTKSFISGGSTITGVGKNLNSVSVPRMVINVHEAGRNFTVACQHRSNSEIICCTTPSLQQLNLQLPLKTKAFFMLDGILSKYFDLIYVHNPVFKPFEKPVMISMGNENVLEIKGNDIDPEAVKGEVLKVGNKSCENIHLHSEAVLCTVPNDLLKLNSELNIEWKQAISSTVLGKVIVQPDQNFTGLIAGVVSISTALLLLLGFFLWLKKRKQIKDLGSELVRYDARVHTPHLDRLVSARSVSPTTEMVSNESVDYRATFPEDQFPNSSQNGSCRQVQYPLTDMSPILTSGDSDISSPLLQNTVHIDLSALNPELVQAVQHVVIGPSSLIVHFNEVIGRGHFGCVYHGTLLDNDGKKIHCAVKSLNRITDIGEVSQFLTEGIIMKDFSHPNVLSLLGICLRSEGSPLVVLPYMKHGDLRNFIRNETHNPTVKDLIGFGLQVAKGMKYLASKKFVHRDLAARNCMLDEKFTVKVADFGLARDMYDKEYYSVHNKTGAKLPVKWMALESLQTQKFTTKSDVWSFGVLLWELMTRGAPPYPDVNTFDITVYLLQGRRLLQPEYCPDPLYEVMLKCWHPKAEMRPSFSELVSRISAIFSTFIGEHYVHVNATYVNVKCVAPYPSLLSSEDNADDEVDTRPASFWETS
ALK S1206R mutant, sequence (Q9UM73 19-1620 S1206R): as the sequence (Q9UM73 19-1620) above, with S1188R counted along it

SMILES: Cc1cc(Nc2ncc(Cl)c(Nc3ccccc3S(=O)(=O)C(C)C)n2)c(OC(C)C)cc1C1CCNCC1 [ceritinib]
- patients discontinuing therapy (ALK-positive NSCLC [1]): 10%
- patients who experienced a SAE (ALK-positive NSCLC [1]): 38%
- patients with a dose interruption (ALK-positive NSCLC [1]): 66%
- RR (ALK-positive NSCLC [1]; first line): 73%
- intracranial response (ALK-positive NSCLC [1]; first line): 57%
- median PFS (ALK-positive NSCLC [1]; first line): 16.6 months
- patients with vomiting [2]: majority of patients
- patients who experienced diarrhea [2]: 75%

SMILES: C[C@@H]1CN(C(=O)c2ccc(NC(=O)c3cc(O[C@H](C)c4c(Cl)ccc(F)c4Cl)c(N)nn3)cc2)C[C@H](C)N1 [ensartinib]
- IC50 (ALK variants): < 4 nM
- IC50 (ALK F1174 mutant): < 0.4 nM
- IC50 (EphA1): 1 to 10 nM
- inhibition of ALK fusion with L1196M [3]: potently inhibited
- IC50 (TRKC): < 1 nM
- IC50 (ALK C1156Y mutant): < 0.4 nM
- maximum tolerated dose (Phase I/II trial, safety; 25-250 mg once daily): not reached
- deaths related to ensartinib (Phase I/II trial, safety; as considered by the sponsor): no deaths
- Constipation, All grades (Phase I/II trial, safety; human, in vivo): 11 (11%)
- Constipation, Grade ≥3 (Phase I/II trial, safety; human, in vivo): 0
- Decreased Appetite, All grades (Phase I/II trial, safety; human, in vivo): 18 (19%)
- Decreased Appetite, Grade ≥3 (Phase I/II trial, safety; human, in vivo): 1 (1%)
- Diarrhea, All grades (Phase I/II trial, safety; human, in vivo): 11 (11%)
- Diarrhea, Grade ≥3 (Phase I/II trial, safety; human, in vivo): 0
- Dry Skin, All grades (Phase I/II trial, safety; human, in vivo): 14 (14%)
- Dry Skin, Grade ≥3 (Phase I/II trial, safety; human, in vivo): 1 (1%)
- Edema, All grades (Phase I/II trial, safety; human, in vivo): 15 (15%)
- Edema, Grade ≥3 (Phase I/II trial, safety; human, in vivo): 1 (1%)
- Elevated aspartate aminotransferase, All grades (Phase I/II trial, safety; human, in vivo): 12 (12%)
- Elevated aspartate aminotransferase, Grade ≥3 (Phase I/II trial, safety; human, in vivo): 1 (1%)
- Fatigue, All grades (Phase I/II trial, safety; human, in vivo): 21 (22%)
- Fatigue, Grade ≥3 (Phase I/II trial, safety; human, in vivo): 2 (2%)
- Nausea, All grades (Phase I/II trial, safety; human, in vivo): 35 (36%)
- Nausea, Grade ≥3 (Phase I/II trial, safety; human, in vivo): 1 (1%)
- Pruritus, All grades (Phase I/II trial, safety; human, in vivo): 27 (28%)
- Pruritus, Grade ≥3 (Phase I/II trial, safety; human, in vivo): 5 (5%)
- Rash, All grades (Phase I/II trial, safety; human, in vivo): 54 (56%)
- Rash, Grade ≥3 (Phase I/II trial, safety; human, in vivo): 12 (12%)
- Vomiting, All grades (Phase I/II trial, safety; human, in vivo): 25 (26%)
- Vomiting, Grade ≥3 (Phase I/II trial, safety; human, in vivo): 1 (1%)
- drug-related diarrhea (Phase I/II trial, safety; human, in vivo): 11%
- patients permanently discontinued due to related toxicity (Phase I/II trial, safety; human, in vivo): 5.2%
- patients requiring at least one dose reduction due to treatment-related toxicity (Phase I/II trial, safety; human, in vivo): 25%
- patients with treatment-related Grade 3-4 AEs (Phase I/II trial, safety; human, in vivo): 23%
- treatment-related fatigue (Phase I/II trial, safety; human, in vivo): 22%
- treatment-related nausea (Phase I/II trial, safety; human, in vivo): 36%
- treatment-related pruritus (Phase I/II trial, safety; human, in vivo): 28%
- treatment-related vomiting (Phase I/II trial, safety; human, in vivo): 26%
- recommended phase II dose (RP2D) (Phase I/II trial, safety; human, in vivo, 28 days): 225 mg
- patients who died while on study (Phase I/II trial, safety; n=97): Five
- IC50 (ALK L1196M mutant): < 0.4 nM
- IC50 (EphB1): 1 to 10 nM
- IC50 (GOPC-ROS1): < 1 nM
- inhibition of ALK fusion with C1156Y [4]: potently inhibited
- IC50 (ALK T1151 mutant): < 0.4 nM
- IC50 (TPM3-TRKA): < 1 nM
- IC50 (c-MET): 1 to 10 nM
- IC50 (ALK S1206R mutant): < 0.4 nM
- IC50 (EphA2): 1 to 10 nM
- IC50 (wild-type ALK): < 0.4 nM
- impact of food on absorption ([5]; 225 mg, food consumed within 30 minutes after taking ensartinib): minimal impact
- increase in mean day 22 AUC from 225 to 250 mg ([5]; fasted, 11% increase in dose): 36%
- dose proportionality of mean day 22 Cmax and AUC ([5]; fasted, 200-225 mg): slightly more than dose proportionally
- dose proportionality of mean day 22 Cmax and AUC ([5]; fasted, 225-250 mg): significantly more than dose proportionally
- dose proportionality of mean day 22 Cmax and AUC ([5]; human, in vivo): increased dose proportionally
- antitumor activity in xenografts [6]: potent antitumor activity
- median DOR (ALK-positive NSCLC [7]; ALK TKI naïve patients, n=12): 24.4 months
- median PFS (ALK-positive NSCLC [7]; ALK TKI-naïve patients): 26.2 months
- disease control rate (DCR) (ALK-positive NSCLC [7]; ALK TKI-naïve patients, n=15): 86.7%
- response rate (RR) (ALK-positive NSCLC [7]; ALK TKI-naïve patients, n=15): 80%
- disease control rate (DCR) (ALK-positive NSCLC [7]; [10]): 81.7%
- patients with tumor regression (ALK-positive NSCLC [7]; [10]): 80%
- median DOR (ALK-positive NSCLC [7]; ALK-positive evaluable patients, n=35): 12.8 months
- median PFS (ALK-positive NSCLC [7]; ALK-positive evaluable patients, ≥200 mg): 9.2 months
- median DOR (ALK-positive NSCLC [7]; crizotinib and a second-generation ALK TKI, n=4): 4.4 months
- intracranial DCR (ALK-positive NSCLC [7]; [11]): 92.9%
- intracranial response rate (ALK-positive NSCLC [7]; [11]): 64% and 64.3%
- patients with intracranial tumor regression (ALK-positive NSCLC [7]; [11]): 78.6%
- disease control rate (DCR) (ALK-positive NSCLC [7]; [12]): 50.0%
- response rate (RR) (ALK-positive NSCLC [7]; [12]): 25%
- median PFS (ALK-positive NSCLC [7]; prior crizotinib only): 9.0 months
- median DOR (ALK-positive NSCLC [7]; prior crizotinib only, n=19): 7.4 months
- disease control rate (DCR) (ALK-positive NSCLC [7]; prior crizotinib only, n=29): 96.6%
- response rate (RR) (ALK-positive NSCLC [7]; prior crizotinib only, n=29): 69%
- median intracranial DOR (ALK-positive NSCLC [7]; responding patients with CNS target lesions at baseline, n=9, ≥200 mg): 5.7 months
- potency relative to crizotinib at inhibiting growth [8]: 10 fold

SMILES: COc1cc(N2CCC(N3CCN(C)CC3)CC2)ccc1Nc1ncc(Cl)c(Nc2ccccc2P(C)(C)=O)n1 [brigatinib]
- patients who experienced diarrhea [2]: 41%
- RR (ALK-positive NSCLC [9]): 54%
- median PFS (ALK-positive NSCLC [9]): 12.9 months
